# Key:
# PI3K-delta = PI3K-delta (Homo sapiens (Human), UniProt O00329); assay: biochemical; settings: PI3Kdelta IC50, HTRF biochemical assay; compound form screened given
# Description: HTRF PI3K Biochemical Assay to Measure Intrinsic Potency of Compound Inhibitors
# The PI3-Kinase biochemical assays were developed to measure the intrinsic potency and compound dependent inhibition of the alpha, beta, delta, and gamma PI3K isoform enzymes. This assay was developed and further optimized from a kit produced by Upstate (Millipore catalog #33-047) and has been configured for HTS and SAR screening. Briefly, this procedure exploits the exquisite specificity and high affinity binding of enzyme reaction substrate phosphatidyl(3,4,5)triphosphate (PIP3) to the GRP1 pleckstrin homology (PH) domain to generate the signal. In the absence of PIP3, an HTRF (Homogeneous Time-Resolved Fluorescence energy transfer) complex is formed consisting of europium (Eu)-labeled anti-GST, GST tagged GRP1-PH domain, biotin-PIP3 and streptavidin conjugated APC. The native PIP3 produced by PI3-Kinase activity disrupts in a competitive manner the biotin-PIP3 from the PH domain, resulting in the loss of energy transfer (HTRF complex) and a decrease in the signal. The format of this assay is the same for all 4 isoforms of PI3K; the differences lie in the concentration of enzyme used to achieve robust assay window. The alpha, beta, and delta assays are run at 0.5, 1, and 0.3 nM enzymes and the gamma assay is run at 5 nM enzyme. The ATP concentration is 100 uM in the alpha, beta, and delta assays and 50 uM ATP in the gamma assay. All reactions are run at 5 uM PIP2.
# Compounds are serially diluted (3-fold in 100% DMSO) across a 384-well polypropylene source plated from column 3 to column 12 and column 13 to column 22, to yield 10 concentration dose response for each test compound. Columns 1, 2, 23 and 24 contain either only DMSO or pharmacological known control inhibitor.
# The PI3-Kinase biochemical assay was optimized using the HTRF kit provided by Upstate (Millipore). The assay kit contains six reagents: 1) 4× Reaction Buffer; 2) native PIP2 (substrate); 3) Stop (EDTA); 4) Detection Mix A (Streptavidin-APC); 5) Detection Mix B (Eu-labeled Anti-GST plus GST-tagged PH-domain); 6) Detection Mix C.
# PI3Kinase Reaction Buffer is prepared by dilution the stock 1:4 with de-ionized water. […] Enzyme addition and compound pre-incubation are initiated by the addition of 1.25 ul of PI3K (at twice its final concentration) in the 1× reaction buffer to all wells using a BioRaptor. Plates are incubated at room temperature for 15 minutes. Reactions are initiated by addition of 1.25 ul of 2× substrate solution (PIP2 and ATP in 1× reaction buffer) using BioRaptor. Plates are incubated in humidified chamber at room temperature for one hour. Reactions are quenched by addition of 0.625 uL of stop solution to all wells using the BioRaptor. The quenched reactions are then processed to detect product formation by adding 0.625 uL of Detection Solution to all wells using the BioRaptor (Detection mix C, Detection Mix A, and Detection Mix B combined together in an 18:1:1 ratio prepared 2 hours prior to use).
# The loss of the HTRF signal is due to the displacement of biotinylated-PIP3 from the PH domain by the PI3K-dependent conversion of PIP2 to PIP3. […] All data were calculated using the ratio of acceptor (APC) to donor (Europium) fluorescence in each well of the assay plate. […] An IC50 was then calculated fitting the % inhibition data to the equation: % inhibition=min+(Max−min)/1+([inhibitor]/IC50)^n) where min is the % inhibition […], max is the signal in DMSO control, and n is the Hill slope.
# PI3K-alpha = PI3K-alpha (Homo sapiens (Human), UniProt P42336); assay: HTRF PI3K biochemical assay, alpha isoform; settings: ratio PI3K-alpha IC50 value/PI3K-delta IC50 value
# PI3K-alpha, sequence (P42336 whole entry, looked up, canonical isoform): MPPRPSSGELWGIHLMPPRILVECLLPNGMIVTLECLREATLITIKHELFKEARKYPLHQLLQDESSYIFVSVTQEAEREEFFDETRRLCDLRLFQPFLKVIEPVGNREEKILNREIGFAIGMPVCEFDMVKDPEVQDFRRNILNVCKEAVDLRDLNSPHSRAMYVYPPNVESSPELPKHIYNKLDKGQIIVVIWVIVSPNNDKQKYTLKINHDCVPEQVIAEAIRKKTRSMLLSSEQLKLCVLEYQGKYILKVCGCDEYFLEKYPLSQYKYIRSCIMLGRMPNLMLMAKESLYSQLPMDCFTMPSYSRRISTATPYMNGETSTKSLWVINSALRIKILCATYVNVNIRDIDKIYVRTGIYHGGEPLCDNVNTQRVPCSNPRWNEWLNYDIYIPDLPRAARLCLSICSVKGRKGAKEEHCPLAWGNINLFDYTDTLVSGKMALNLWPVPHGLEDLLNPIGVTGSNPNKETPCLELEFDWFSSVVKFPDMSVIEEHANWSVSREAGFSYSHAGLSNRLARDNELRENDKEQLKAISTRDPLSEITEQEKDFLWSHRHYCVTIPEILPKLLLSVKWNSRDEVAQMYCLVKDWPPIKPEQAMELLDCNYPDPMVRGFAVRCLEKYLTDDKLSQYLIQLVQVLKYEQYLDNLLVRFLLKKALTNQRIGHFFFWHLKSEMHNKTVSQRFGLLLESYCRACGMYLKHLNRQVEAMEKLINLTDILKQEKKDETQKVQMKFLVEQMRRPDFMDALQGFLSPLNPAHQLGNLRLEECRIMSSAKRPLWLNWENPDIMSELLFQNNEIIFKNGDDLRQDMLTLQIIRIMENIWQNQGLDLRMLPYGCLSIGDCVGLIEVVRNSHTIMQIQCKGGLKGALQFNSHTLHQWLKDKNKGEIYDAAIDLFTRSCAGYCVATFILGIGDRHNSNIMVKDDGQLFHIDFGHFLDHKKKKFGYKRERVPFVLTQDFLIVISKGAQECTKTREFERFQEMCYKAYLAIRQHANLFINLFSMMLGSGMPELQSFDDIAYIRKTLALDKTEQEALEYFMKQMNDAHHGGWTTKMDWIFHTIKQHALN
# PI3K-alpha, sequence (P27986 whole entry partner, looked up, canonical isoform): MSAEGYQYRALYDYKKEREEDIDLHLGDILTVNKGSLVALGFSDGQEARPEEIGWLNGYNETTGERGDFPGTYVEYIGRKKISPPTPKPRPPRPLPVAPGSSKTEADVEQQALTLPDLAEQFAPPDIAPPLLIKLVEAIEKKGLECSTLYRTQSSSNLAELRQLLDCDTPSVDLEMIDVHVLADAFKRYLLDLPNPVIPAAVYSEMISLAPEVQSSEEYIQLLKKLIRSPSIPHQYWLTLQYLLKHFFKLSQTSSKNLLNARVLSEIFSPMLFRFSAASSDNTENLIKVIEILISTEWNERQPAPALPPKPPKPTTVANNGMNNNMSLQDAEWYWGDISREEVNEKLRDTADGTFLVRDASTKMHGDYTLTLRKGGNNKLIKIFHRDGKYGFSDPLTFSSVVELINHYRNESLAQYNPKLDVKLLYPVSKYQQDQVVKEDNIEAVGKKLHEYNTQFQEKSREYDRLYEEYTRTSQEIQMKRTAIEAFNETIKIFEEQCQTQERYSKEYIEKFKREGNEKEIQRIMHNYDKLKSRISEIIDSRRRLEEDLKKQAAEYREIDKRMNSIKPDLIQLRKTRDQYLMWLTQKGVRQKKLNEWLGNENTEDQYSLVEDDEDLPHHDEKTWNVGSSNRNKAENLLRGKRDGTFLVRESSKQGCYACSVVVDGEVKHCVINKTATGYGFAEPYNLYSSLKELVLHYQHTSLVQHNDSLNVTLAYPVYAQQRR
# PI3K-delta, sequence (O00329 whole entry, looked up): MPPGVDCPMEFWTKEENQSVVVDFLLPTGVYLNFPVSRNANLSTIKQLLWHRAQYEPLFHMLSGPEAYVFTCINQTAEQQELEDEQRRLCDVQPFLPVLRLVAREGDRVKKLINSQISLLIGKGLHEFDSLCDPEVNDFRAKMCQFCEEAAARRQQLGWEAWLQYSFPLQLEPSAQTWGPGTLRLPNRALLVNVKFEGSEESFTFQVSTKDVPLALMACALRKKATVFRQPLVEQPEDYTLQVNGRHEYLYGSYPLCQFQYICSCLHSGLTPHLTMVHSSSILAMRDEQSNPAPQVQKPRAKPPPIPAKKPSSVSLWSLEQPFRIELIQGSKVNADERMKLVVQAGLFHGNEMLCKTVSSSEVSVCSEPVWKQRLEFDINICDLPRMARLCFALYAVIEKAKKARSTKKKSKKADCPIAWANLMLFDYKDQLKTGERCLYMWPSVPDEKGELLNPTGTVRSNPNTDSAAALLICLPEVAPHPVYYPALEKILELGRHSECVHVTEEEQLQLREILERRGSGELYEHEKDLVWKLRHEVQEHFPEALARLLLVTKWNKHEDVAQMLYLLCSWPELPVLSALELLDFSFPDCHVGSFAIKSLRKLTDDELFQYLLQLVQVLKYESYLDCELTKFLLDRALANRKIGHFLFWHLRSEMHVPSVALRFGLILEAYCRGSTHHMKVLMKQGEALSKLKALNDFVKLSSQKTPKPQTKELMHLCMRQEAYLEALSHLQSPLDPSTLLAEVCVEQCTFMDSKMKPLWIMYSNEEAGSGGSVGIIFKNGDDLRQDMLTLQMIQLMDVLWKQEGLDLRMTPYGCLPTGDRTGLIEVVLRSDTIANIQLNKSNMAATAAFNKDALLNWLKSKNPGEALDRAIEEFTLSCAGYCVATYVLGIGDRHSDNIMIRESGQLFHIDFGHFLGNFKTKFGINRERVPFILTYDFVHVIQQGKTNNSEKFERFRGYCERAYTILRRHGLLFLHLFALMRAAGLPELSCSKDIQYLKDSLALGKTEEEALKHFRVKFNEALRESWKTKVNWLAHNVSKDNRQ
# PI3K-delta, sequence (P27986 whole entry partner, looked up): as the sequence (P27986 whole entry partner, looked up, canonical isoform) above
compound,measurement,setting,value
"CCn1c(-c2cnc(C)nc2)nc2c(O[C@H]3CCN(C(=O)C4CC45CCCC5)C3)ncnc21 (single isomer, unassigned) [Compound 2-123, 9-ethyl-8-(2-methylpyrimidin-5-yl)-6-{[(3S)-1-((R or S)-spiro[2.4]hept-1-ylcarbonyl)pyrrolidin-3-yl]oxy}-9H-purine]",IC50,PI3K-delta,< 1 nM
same,Relative Selectivity versus PI3Kalpha,PI3K-alpha,>10
"CCn1c(-c2cnc(C)nc2)nc2c(O[C@H]3CCN(C(=O)N4CCC4C)C3)ncnc21 (single isomer, unassigned) [Compound 5-15, 9-ethyl-6-({(3S)-1-[((2R or 2S)-methylazetidin-1-yl)carbonyl]pyrrolidin-3-yl}oxy)-8-(2-methylpyrimidin-5-yl)-9H-purine]",IC50,PI3K-delta,6.2 nM
same,Relative Selectivity versus PI3Kalpha,PI3K-alpha,>10
"CCn1c(-c2cnc(C)nc2)nc2c(O[C@H]3CCN(C(=O)N4CCC4C)C3)ncnc21 (single isomer, unassigned) [Compound 5-16, 9-ethyl-6-({(3S)-1-[((2R or 2S)-methylazetidin-1-yl)carbonyl]pyrrolidin-3-yl}oxy)-8-(2-methylpyrimidin-5-yl)-9H-purine]",IC50,PI3K-delta,16 nM
same,Relative Selectivity versus PI3Kalpha,PI3K-alpha,>10
"CCn1c(-c2cnc(C)nc2)nc2c(O[C@@H]3CN(C(=O)C4CC4)CC3(C)C)ncnc21 (racemic) [Compound 3-62, racemic-6-{[1-(cyclopropylcarbonyl)-4,4-dimethylpyrrolidin-3-yl]oxy}-9-ethyl-8-(2-methylpyrimidin-5-yl)-9H-purine]",IC50,PI3K-delta,2.3 nM
same,Relative Selectivity versus PI3Kalpha,PI3K-alpha,>10
"CCn1c(-c2cnc(C)nc2)nc2c(O[C@H]3CCN(C(=O)C4CC45CCCC5)C3)ncnc21 (single isomer, unassigned) [Compound 2-122, 9-ethyl-8-(2-methylpyrimidin-5-yl)-6-{[(3S)-1-((R or S)-spiro[2.4]hept-1-ylcarbonyl)pyrrolidin-3-yl]oxy}-9H-purine]",IC50,PI3K-delta,16 nM
same,Relative Selectivity versus PI3Kalpha,PI3K-alpha,>10
"CCn1c(-c2cnc(C)nc2)nc2c(O[C@H]3CCN(C(=O)C4CNC4)C3)ncnc21 [Compound 2-102, 6-{[(3S)-1-(azetidin-3-ylcarbonyl)pyrrolidin-3-yl]oxy}-9-ethyl-8-(2-methylpyrimidin-5-yl)-9H-purine]",Relative Selectivity versus PI3Kalpha,PI3K-alpha,>10
"CCn1ncc(-c2nc3c(CC4CCN(C(=O)C5CCOCC5)C4)ncnc3n2C)c1C (stereo not drawn) [Compound 11-2, (3-((8-(1-ethyl-5-methyl-1H-pyrazol-4-yl)-9-methyl-9H-purin-6-yl)methyl)pyrrolidin-1-yl)(tetrahydro-2H-pyran-4-yl)methanone]",Relative Selectivity versus PI3Kalpha,PI3K-alpha,>10
"CCn1ncc(-c2nc3c(O[C@H]4CCN(C(=O)c5oncc5C)C4)ncnc3n2C)c1C [Compound 2-69, 8-(1-ethyl-5-methyl-1H-pyrazol-4-yl)-9-methyl-6-({(3S)-1-[(4-methylisoxazol-5-yl)carbonyl]pyrrolidin-3-yl}oxy)-9H-purine]",Relative Selectivity versus PI3Kalpha,PI3K-alpha,>10
"Cc1ncc(-c2nc3c(OC4CCN(C(=O)OC(C)(C)C)C4)ncnc3n2C)cn1 [Compound 1-14, terl-butyl (3S)-3-{[9-methyl-8-(2-methylpyrimidin-5-yl)-9H-purin-6-yl]oxy}pyrrolidine-1-carboxylate]",Relative Selectivity versus PI3Kalpha,PI3K-alpha,>10
"CCn1c(-c2cnc(C)nc2)nc2c(OC3CN(C(=O)C4CC4)CC3(F)F)ncnc21 (stereo not drawn) [Compound 2-99, 6-{[1-(cyclopropylcarbonyl)-4,4-difluoropyrrolidin-3-yl]oxy}-9-ethyl-8-(2-methylpyrimidin-5-yl)-9H-purine]",Relative Selectivity versus PI3Kalpha,PI3K-alpha,>10
"CCOC(=O)N1CC[C@H](Oc2ncnc3c2nc(-c2cnc(C)nc2)n3CC)C1 [Compound 1-43, (S)-ethyl 3-{[9-ethyl-8-(2-methylpyrimidin-5-yl)-9H-purin-6-yl]oxy}pyrrolidine-1-carboxylate]",Relative Selectivity versus PI3Kalpha,PI3K-alpha,>10
"CCn1ncc(-c2nc3c(O[C@H]4CCN(C(=O)c5ccncc5)C4)ncnc3n2C)c1C [Compound 2-64, 8-(1-ethyl-5-methyl-1H-pyrazol-4-yl)-9-methyl-6-{[(3S)-1-(pyridin-4-ylcarbonyl)pyrrolidin-3-yl]oxy}-9H-purine]",Relative Selectivity versus PI3Kalpha,PI3K-alpha,>10
"CCn1c(-c2ccc(OC(F)(F)F)cc2)nc2c(O[C@H]3CCN(C(=O)C4CC4)C3)ncnc21 [Compound 2-142, 6-{[(3S)-1-(cyclopropylcarbonyl)pyrrolidin-3-yl]oxy}-9-ethyl-8-[4-(trifluoromethoxy)phenyl]-9H-purine]",Relative Selectivity versus PI3Kalpha,PI3K-alpha,>10

# — US9730940B2, “Purine inhibitors of human phosphatidylinositol 3-kinase delta” (priority 2012, dated 2017)
